This note sets out measurements from ChEMBL document CHEMBL4043211, “Synthesis and anti-enterovirus activity of new analogues of MDL-860” (Bioorg Med Chem Lett, 2017).

In one data set the test system is Coxsackievirus B3. Description: Antiviral activity against Coxsackievirus B3 Nancy infected in human Hep2 cells assessed as inhibition of virus-induced cytopathic effect after 48 hrs by neutral red uptake assay. The data set is classed as functional, cell-based. (In general: Protection from cytopathic effect is a common read-out in antiviral testing.)
Data set [1] is described as follows: Selectivity index, ratio of CC50 for human Hep2 cells to IC50 for Coxsackievirus B3 Nancy infected in human Hep2 cells. The data set is classed as toxicity, cell-based. As to conditions: HEp-2 cells, read-out: Ratio CC50/IC50; call rule not given here.
Data set [2] in a line: Cytotoxicity against human Hep2 cells assessed as decrease in cell viability after 48 hrs by neutral red uptake assay. The data set is classed as cell-based. As to conditions: HEp-2 cells.
In data set [3] the test system is Coxsackievirus B1. Description: Antiviral activity against Coxsackievirus B1 Connecticut 5 infected in human Hep2 cells assessed as inhibition of virus-induced cytopathic effect after 48 hrs by neutral red uptake assay. The data set is classed as functional, cell-based.
The subject of a further data set is Poliovirus 1. Description: Antiviral activity against Poliovirus 1 LSc-2ab infected in human Hep2 cells assessed as inhibition of virus-induced cytopathic effect after 48 hrs by neutral red uptake assay. The data set is classed as functional, cell-based.
A short description of data set [4]: Selectivity index, ratio of CC50 for human Hep2 cells to IC50 for Coxsackievirus B1 Connecticut 5 infected in human Hep2 cells. In kind it is toxicity, cell-based. Conditions: HEp-2 cells, read-out: Ratio CC50/IC50.
Data set [5] can be described thus: Selectivity index, ratio of CC50 for human Hep2 cells to IC50 for Poliovirus 1 infected in human Hep2 cells. The data set is classed as toxicity, cell-based. Conditions: HEp-2 cells, read-out: Ratio CC50/IC50.
In data set [6] the test system is Coxsackievirus B1. Description: Antiviral activity against Coxsackievirus B1 infected in new born ICR mouse assessed as mortality at 50 mg/kg, sc administered for 12 days (reference value: 100%). In kind it is functional. Conditions: Enterovirus B, 288 h.
Data set [7] has as its system Coxsackievirus B1. Description: Antiviral activity against Coxsackievirus B1 infected in new born ICR mouse assessed as increase in mean survival time at 50 mg/kg, sc administered for 12 days. In kind it is functional.
Data set [8] deals with Coxsackievirus B1. Description: Antiviral activity against Coxsackievirus B1 infected in new born ICR mouse assessed as protection index at 50 mg/kg, sc administered for 12 days (reference value: 0%). The data set is classed as functional.
Data set [9] relates to Coxsackievirus B1. Description: Antiviral activity against Coxsackievirus B1 infected in new born ICR mouse assessed as mortality at 75 mg/kg, sc administered for 12 days (reference value: 100%). In kind it is functional. Conditions: Enterovirus B, 288 h.
In data set [10] the test system is Coxsackievirus B1. Description: Antiviral activity against Coxsackievirus B1 infected in new born ICR mouse assessed as protection index at 75 mg/kg, sc administered for 12 days (reference value: 0%). The data set is classed as functional.
The test system of data set [11] is Coxsackievirus B1. Description: Antiviral activity against Coxsackievirus B1 infected in new born ICR mouse assessed as increase in mean survival time at 75 mg/kg, sc administered for 12 days. In kind it is functional.
In data set [12] the test system is Coxsackievirus B1. Description: Antiviral activity against Coxsackievirus B1 infected in new born ICR mouse assessed as increase in mean survival time at 25 mg/kg, sc administered for 12 days. The data set is classed as functional.
For data set [13], the system named is Coxsackievirus B1. Description: Antiviral activity against Coxsackievirus B1 infected in new born ICR mouse assessed as protection index at 25 mg/kg, sc administered for 12 days (reference value: 0%). The data set is classed as functional.
Data set [14] deals with Coxsackievirus B1. Description: Antiviral activity against Coxsackievirus B1 infected in new born ICR mouse assessed as mortality at 25 mg/kg, sc administered for 12 days (reference value: 100%). The data set is classed as functional. Conditions: Enterovirus B, 288 h.
The mark [15] stands for this setting: Enterovirus B, Nancy, HEp-2, 48 h, read-out: IC50.
Setting [16] is: Enterovirus B, Connecticut 5, HEp-2, 48 h, read-out: IC50.
Setting [17] is: Enterovirus C, LSc-2ab, HEp-2, 48 h, read-out: IC50.

Regarding `N#Cc1cc([N+](=O)[O-])ccc1Sc1ccccc1Cl`, the IC50 – broadly, the concentration needed to halve the response being measured – in the data set on Coxsackievirus B3 (setting [15]) is 9.9 µM; in the data set on Coxsackievirus B1 [3], “Not Active”; in the data set on Poliovirus 1, “Not Active”. Moreover, the selectivity ratio in data set [1] turned out to be 5.4. Besides, the cytotoxic concentration (CC50) (as a rule, the concentration at which the toxic effect on the cells reaches its halfway point) at 48 h in data set [2] was found to be 53.8 µM.
As for `Cc1c(Br)cc(Br)c(Oc2ccc([N+](=O)[O-])cc2C#N)c1Br`, the half-maximal inhibitory concentration (IC50) is 29.6 µM with Coxsackievirus B3 (setting [15]), 256 µM with Coxsackievirus B1 [3] (setting [16]) and “Not Active” with Poliovirus 1. Moreover, the results for the selectivity ratio in data set [1] and in data set [4] were 19.6 and 2.2, respectively. Also, in [2], the CC50 at 48 h amounted to 570 µM.
`N#Cc1cc([N+](=O)[O-])ccc1N1C[C@@H]2C[C@H](C1)c1cccc(=O)n1C2`: the half-maximal inhibitory concentration (IC50) result in the data set with Coxsackievirus B3 is “Not Active”; in the data set with Coxsackievirus B1 [3] (setting [16]), 152 µM; with Poliovirus 1 (setting [17]), 234 µM. In addition, in data set [2], the CC50 at 48 h is 492 µM. For the same compound, the selectivity ratio in data set [4] was determined as 3.2; in data set [5], 2.1.
Turning to `N#Cc1cc([N+](=O)[O-])ccc1Oc1c(F)cccc1F`, the IC50 entry with Coxsackievirus B3 was “Not Active”; with Coxsackievirus B1 [3] (setting [16]) it was 0.7 µM; in the data set on Poliovirus 1 (setting [17]), 6.8 µM. The CC50 at 48 h in [2] was 355 µM. In addition, the mortality (usually the share of the test organisms that died) at 50 mg/kg with Coxsackievirus B1 [6] was determined as 66.7%. For the same compound, the selectivity ratio turned out to be 507 in [4] and 52.2 in data set [5]. Moreover, the MST in the data set with Coxsackievirus B1 [7] was 5.4 days. Moreover, in the data set with Coxsackievirus B1 [8], the PI is on record as 33.3%.
On to `N#Cc1cc([N+](=O)[O-])ccc1Oc1c(Cl)c(Cl)c(Cl)c(Cl)c1Cl`, for which the results for the IC50 in the data set with Coxsackievirus B3 (setting [15]), with Coxsackievirus B1 [3] (setting [16]) and in the data set with Poliovirus 1 were 5.8 µM, 10.9 µM and “Not Active”, respectively. Besides, the selectivity ratio came to 20.5 in data set [1] and 10.9 in data set [4]. The CC50 at 48 h in data set [2] came to 119 µM.
For `N#Cc1cc([N+](=O)[O-])ccc1Oc1ccc(Cl)c(Cl)c1`, the IC50 turned out to be 2.7 µM with Coxsackievirus B3 (setting [15]), 0.8 µM with Coxsackievirus B1 [3] (setting [16]) and 6.8 µM with Poliovirus 1 (setting [17]). Further, in the data set with Coxsackievirus B1 [9], the mortality at 75 mg/kg turned out to be 100%. Moreover, the selectivity ratio in data set [1] is 182; in [4] it was 587; in data set [5] it was 72.5. Further, the 50% cytotoxic concentration (CC50) at 48 h in [2] is 493 µM. Moreover, in the data set on Coxsackievirus B1 [10], the PI was determined as 0%. In the data set with Coxsackievirus B1 [11], the MST was 3 days.
As for `N#Cc1cc([N+](=O)[O-])ccc1Oc1c(F)cc(F)cc1F`, the IC50 entry with Coxsackievirus B3 was “Not Active”; in the data set with Coxsackievirus B1 [3] (setting [16]) it was 0.75 µM; in the data set on Poliovirus 1 (setting [17]), 2.7 µM. For the same compound, in [2], the 50% cytotoxic concentration (CC50) at 48 h was 518 µM. The MST with Coxsackievirus B1 [12] stood at 2.6 days. In the data set on Coxsackievirus B1 [13], the PI was 11.6%. Moreover, the selectivity ratio turned out to be 690 in data set [4] and 192 in [5]. Also, the mortality at 25 mg/kg in the data set on Coxsackievirus B1 [14] stood at 88.4%.
As to `N#Cc1cc([N+](=O)[O-])ccc1Oc1ccccc1-c1cn2ccccc2n1`, the concentration for half-maximal inhibition (IC50) result in the data set on Coxsackievirus B3, in the data set with Coxsackievirus B1 [3] and in the data set with Poliovirus 1 was “Not Active” in each case. Also, the CC50 at 48 h in data set [2] is 718 µM.
On to `N#Cc1cc([N+](=O)[O-])ccc1Oc1ccc(F)c(F)c1`, for which the figures for the IC50 result in the data set on Coxsackievirus B3, in the data set with Coxsackievirus B1 [3] (setting [16]) and in the data set on Poliovirus 1 (setting [17]) were “Not Active”, 0.8 µM and 2.7 µM, respectively. In addition, the half-maximal cytotoxic concentration (CC50) at 48 h in data set [2] turned out to be 320 µM. For the same compound, in the data set on Coxsackievirus B1 [6], the mortality at 50 mg/kg is 50%. In addition, the selectivity ratio in [4] stood at 405; in data set [5], 118. In addition, the MST with Coxsackievirus B1 [7] turned out to be 5 days. In the data set with Coxsackievirus B1 [8], the PI turned out to be 50%.
`Cc1ccc(C(C)C)c(Oc2ccc([N+](=O)[O-])cc2C#N)c1`: the IC50 result in the data set with Coxsackievirus B3 is “Not Active”; in the data set with Coxsackievirus B1 [3] (setting [16]), 16.2 µM; in the data set on Poliovirus 1, “Not Active”. The cytotoxic concentration (CC50) at 48 h in data set [2] came to 94.3 µM. Moreover, the selectivity ratio in data set [4] worked out at 5.8.
On to `N#Cc1cc([N+](=O)[O-])ccc1Oc1ncn(-c2ccccc2)n1`, for which the results for the IC50 entry with Coxsackievirus B3, in the data set on Coxsackievirus B1 [3] (setting [16]) and in the data set with Poliovirus 1 were “Not Active”, 190 µM and “Not Active”, respectively. The CC50 at 48 h in [2] stood at 571 µM. Besides, in data set [4], the selectivity ratio amounted to 3.
As for `COc1ccc(Oc2ccc([N+](=O)[O-])cc2C#N)c(C(C)(C)C)c1`, the half-maximal inhibitory concentration (IC50) entry in the data set with Coxsackievirus B3, in the data set with Coxsackievirus B1 [3] and with Poliovirus 1 was “Not Active” in each case. In [2], the cytotoxic concentration (CC50) at 48 h was 22 µM.
As for `CC1(C)CC(Nc2ccc([N+](=O)[O-])cc2C#N)CC(C)(C)N1`, the 50% inhibitory concentration (IC50) was 426 µM in the data set with Coxsackievirus B3 (setting [15]), “Not Active” with Coxsackievirus B1 [3] and “Not Active” in the data set with Poliovirus 1. Further, the selectivity ratio in data set [1] is 1.5. Besides, the cytotoxic concentration (CC50) at 48 h in data set [2] worked out at 675 µM.
